{"source": "patent US20220002671A1", "about": "“T Cells with Improved Mitochondrial Function” (Abraham J and Phyllis Katz Cord Blood Foundation, priority 2018, published 2022)", "key": {"TNT formation": {"test_system": "TNT formation", "conditions": "Sáenz-de-Santa-María et al., Oncotarget, 2017; cited from earlier work"}, "[1]": {"test_system": "mitochondrial transfer from BM-MSC to UCB iTregs", "assay": "Mitochondrial transfer from BM-MSC into UCB iTregs, MitoTracker Red FM by confocal microscopy", "format": "cell-based, human"}, "[2]": {"test_system": "BACH2, SENP3, Foxp3 in iTreg", "assay": "iTreg Foxp3, BACH2 and SENP3 protein expression", "format": "cell-based, human", "conditions": "after cytochalasin B treatment"}, "[3]": {"test_system": "mitochondrial transfer from hBM-MSC to iTreg", "assay": "Mitochondrial transfer from BM-MSC into iTregs, MitoTracker green by flow cytometry", "format": "cell-based, human", "conditions": "Cytochalasin B 350 nM treated BM-MSC, 24 h, n=6; Mock 2208±122.1"}, "[4]": {"test_system": "mitochondrial transfer from BM-MSC to UCB iTregs", "assay": "Mitochondrial transfer from mt-GFP lentivirus transduced MSC into iTregs, flow cytometry", "format": "cell-based, human"}}, "data": [{"molecule": "C=C1[C@@H](C)[C@H]2[C@H](Cc3ccccc3)NC(=O)[C@]23[C@H](OC(C)=O)/C=C/[C@@](C)(O)C(=O)[C@@H](C)C/C=C/[C@H]3[C@@H]1O", "note": "[Cytocalasin D, Cytochalasin D]", "values": [{"measurement": "TNT formation", "setting": "TNT formation", "value": "significant reduction"}]}, {"molecule": "Cytochalasin B", "values": [{"measurement": "mitochondrial transfer from MSC to UCB iTregs (MitoTracker+ iTregs, confocal)", "setting": "[1]; 350 nM, 24 h", "value": "significantly blocks mitochondrial transfer"}, {"measurement": "iTreg BACH2 protein expression", "setting": "[2]", "value": "dramatically decreased"}, {"measurement": "iTreg SENP3 protein expression", "setting": "[2]", "value": "no significant effect"}, {"measurement": "mitochondrial transfer from hBM-MSC to iTreg (MitoTracker MFI)", "setting": "[3]", "value": "923.8±89", "unit": "MFI"}]}, {"molecule": "CC(=O)N[C@@H](CS)C(=O)O", "note": "[N-acetylcysteine]", "values": [{"measurement": "mitochondria uptake by Treg (confocal)", "setting": "[1]; 200 uM added to BM-MSC+iTreg culture, 24-36 h", "value": "minimally reduced"}]}, {"molecule": "C=C(C)[C@H]1Cc2c(ccc3c2O[C@@H]2COc4cc(OC)c(OC)cc4[C@@H]2C3=O)O1", "note": "[rotenone]", "values": [{"measurement": "transfer of mitochondria into iTregs from rotenone treated MSC", "setting": "[4]; rotenone treated mt-GFP MSC platform, 72 hrs", "value": "do not transfer"}]}, {"molecule": "Nc1ncnc2c1ncn2[C@@H]1O[C@H](COP(=O)(O)CP(=O)(O)O)[C@@H](O)[C@H]1O", "note": "[Adenosine 5′-(α,(β-methylene)diphosphate, Adenosine 5′-(α,β-methylene)diphosphate]", "values": [{"measurement": "mitochondrial transfer from BM-MSC to UCB iTregs (mt-GFP+ iTregs)", "setting": "[4]", "value": "significantly blocks mitochondrial transfer"}]}]}
